Laboratory results from PMC12463676, “Small-molecule dissolution of stress granules by redox modulation benefits ALS models” (Nature Chemical Biology, 2025).
Residue numbers refer to the chain shown, from its start.

Columns and labels:
FUS–GFP [1] = molecular target: T1, FUS–GFP (Homo sapiens, UniProt P35637, G156E); test: condensate ageing: FRAP and fibre formation; type: biochemical; settings: 30 uM compound, 50 mM KCl, 1 mM DTT, pH 7.4, shaking; condensates
T1 construct: full-length FUS with C-terminal GFP; 6xHis-MBP tag cleaved by 3C protease; Sf9 insect cells; condensates at low salt
T1 sequence (P35637 1-526 G156E): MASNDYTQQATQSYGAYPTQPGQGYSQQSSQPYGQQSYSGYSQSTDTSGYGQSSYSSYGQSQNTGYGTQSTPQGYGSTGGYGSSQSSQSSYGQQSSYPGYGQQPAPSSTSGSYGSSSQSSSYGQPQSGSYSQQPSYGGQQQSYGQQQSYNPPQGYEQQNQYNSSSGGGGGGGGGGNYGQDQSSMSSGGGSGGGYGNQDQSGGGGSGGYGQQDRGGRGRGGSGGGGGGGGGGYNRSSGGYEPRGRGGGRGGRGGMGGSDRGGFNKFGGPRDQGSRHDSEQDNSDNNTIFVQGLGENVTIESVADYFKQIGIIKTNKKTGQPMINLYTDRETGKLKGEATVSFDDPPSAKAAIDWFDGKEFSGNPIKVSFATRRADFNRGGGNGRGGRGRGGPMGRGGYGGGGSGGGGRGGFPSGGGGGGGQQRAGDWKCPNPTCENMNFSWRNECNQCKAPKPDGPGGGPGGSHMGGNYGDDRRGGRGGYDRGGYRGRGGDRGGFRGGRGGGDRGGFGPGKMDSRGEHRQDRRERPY

FUS–GFP [2] = molecular target: T2, FUS–GFP (Homo sapiens, UniProt P35637); test: imaging of FUS-GFP condensates in vitro; type: biochemical; settings: 100 uM compound, 50 mM KCl, 1 mM DTT, pH 7.4, 0.7 uM FUS-GFP
T2 construct: full-length FUS with C-terminal GFP; 6xHis-MBP tag cleaved by 3C protease; Sf9 insect cells; condensates at low salt
T2 sequence (P35637 1-526): T1 sequence (P35637 1-526 G156E) with E156G

| SMILES | condensate ageing: FRAP and fibre formation (FUS–GFP [1]) | imaging of FUS-GFP condensates in vitro (FUS–GFP [2]) |
| --- | --- | --- |
| NC(=O)CCCCC1CCSS1 (racemic) [lipoamide] | Both lipoamide and lipoic acid reduced FUS-G156E–GFP condensate hardening and fiber formation |  |
| O=C(O)CCCC[C@@H]1CCSS1 [lipoic acid] | Both lipoamide and lipoic acid reduced FUS-G156E–GFP condensate hardening and fiber formation |  |
| O=C1c2c(O)ccc(O)c2C(=O)c2c(NCCNCCO)ccc(NCCNCCO)c21 [mitoxantrone] |  | the fewer smaller drops with mitoxantrone |
